Holding throughout (assay type): biochemical
One assay has as its target T1, COX-1 (Ovis aries, UniProt P05979).
T1 construct: purchased BioVision (Milpitas, CA, USA) K548-100
In words: Fluorimetric COX-1 inhibition screening kit (BioVision). Particulars: for COX-1 inhibition at the initial concentrations: 10^−3 M and 10^−4 M; for inhibition at 10 µM: 10^−5 M; for inhibition at 1 µM: 10^−6 M; for inhibition at 0.1 µM: 10^−7 M; for inhibition at 0.01 µM: 10^−8 M; for inhibition at 0.001 µM: 10^−9 M. On the procedure:
(§1) Inhibitory potency of the compounds on COX-1 and COX-2 enzymes was determined by using fluorimetric COX-1 and COX-2 inhibition screening kits from BioVision (Milpitas, CA, USA). The experimental protocol as described in the guides provided by the supplier was followed. All of the pipetting were performed using a robotized system to increase speed, accuracy and precision. Fluorescence intensities of the samples were kinetically measured at 25 °C for 5–10 min by monitoring emissions at 587 nm after excitation at 535 nm. Two appropriate points (T1 and T2) in the linear range of the plot were chosen and the corresponding fluorescence values (RFU1 and RFU2) were obtained. The slope for all samples including Enzyme Control (EC) was calculated by dividing the net ΔRFU (RFU2 − RFU1) values by the time ΔT (T2 − T1). Percentage of relative inhibition was calculated by using the following equation:% Relative inhibition = (Slope of EC − Slope of S/Slope of EC) × 100 where S is the term representing the tested compound [51, 52]. […] The IC50 values were calculated using the plots of the enzyme activity against concentrations by applying regression analyses.

A further assay deals with T2, COX-2 (Homo sapiens, UniProt P35354).
T2 construct: purchased BioVision (Milpitas, CA, USA) K547-100
T2 sequence (P35354 18-604): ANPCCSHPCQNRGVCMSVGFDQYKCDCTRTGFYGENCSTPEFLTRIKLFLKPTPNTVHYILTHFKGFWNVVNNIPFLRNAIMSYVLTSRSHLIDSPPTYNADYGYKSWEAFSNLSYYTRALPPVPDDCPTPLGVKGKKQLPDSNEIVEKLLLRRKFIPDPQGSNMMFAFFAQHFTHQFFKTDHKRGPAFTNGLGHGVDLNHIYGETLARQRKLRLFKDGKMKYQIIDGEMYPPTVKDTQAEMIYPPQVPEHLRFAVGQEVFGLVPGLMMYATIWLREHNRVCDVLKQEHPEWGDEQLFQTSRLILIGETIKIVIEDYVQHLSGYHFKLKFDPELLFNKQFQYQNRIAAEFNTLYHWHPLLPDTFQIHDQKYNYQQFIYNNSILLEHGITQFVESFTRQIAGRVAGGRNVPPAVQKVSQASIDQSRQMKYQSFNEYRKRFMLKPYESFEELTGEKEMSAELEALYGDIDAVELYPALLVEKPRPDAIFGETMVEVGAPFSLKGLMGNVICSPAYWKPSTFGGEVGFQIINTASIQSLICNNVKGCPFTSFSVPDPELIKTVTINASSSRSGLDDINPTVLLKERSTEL
Nature of the assay: Fluorimetric COX-2 inhibition screening kit (BioVision). To be noted: for COX-2 inhibition at the initial concentrations: 10^−3 M and 10^−4 M; for inhibition at 10 µM: 10^−5 M; for inhibition at 1 µM: 10^−6 M, read-out: COX 2 Inhibition %; for inhibition at 0.1 µM: 10^−7 M; for inhibition at 0.01 µM: 10^−8 M; for inhibition at 0.001 µM: 10^−9 M. On the procedure: as §1

In another assay the target is AChE (Homo sapiens, UniProt P22303). The protocol: Inhibition potency of the test compounds against AChE was determined using Ellman’s method. Enzyme solutions were prepared in gelatin solution (1%, w/v), at the concentration of 2.5 units/mL. […] AChE solution (20 µL/well) and test solution (20 µL/well) were added to phosphate buffer solution (140 µL/well, pH 8.0 ± 0.1), and incubated at 25 °C for 5 min. […] The production of the yellow anion was recorded by multimode microplate reader for 10 min at 412 nm. As a control, an identical solution of the enzyme without the inhibitor was processed. The control and the inhibitor readings were corrected with blank-readings. All processes were assayed in four independent determinations.

For the next assay, the target named is T3, human recombinant MAO-B (Homo sapiens, UniProt P27338).
T3 sequence (P27338 1-520): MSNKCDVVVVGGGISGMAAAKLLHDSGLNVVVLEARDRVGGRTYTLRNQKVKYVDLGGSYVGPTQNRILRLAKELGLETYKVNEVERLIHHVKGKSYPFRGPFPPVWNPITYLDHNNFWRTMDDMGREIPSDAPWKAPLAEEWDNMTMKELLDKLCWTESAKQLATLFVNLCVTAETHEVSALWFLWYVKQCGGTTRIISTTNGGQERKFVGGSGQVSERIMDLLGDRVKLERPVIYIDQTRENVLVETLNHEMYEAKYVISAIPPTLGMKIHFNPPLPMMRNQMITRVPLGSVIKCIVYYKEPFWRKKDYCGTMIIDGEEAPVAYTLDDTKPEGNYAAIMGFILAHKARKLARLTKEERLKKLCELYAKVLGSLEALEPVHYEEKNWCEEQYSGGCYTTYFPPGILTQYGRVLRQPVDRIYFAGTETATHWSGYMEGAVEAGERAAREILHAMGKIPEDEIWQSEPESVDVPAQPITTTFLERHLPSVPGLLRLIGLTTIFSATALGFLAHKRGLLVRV
Nature of the assay: MAO inhibition assay (kynuramine, fluorimetric). On the procedure:
(§2) Enzyme activity assays were performed according to the procedure reported by Matsumoto et al. with slight modifications. In order to prevent the destructive effect of light on MAO enzymes, the assays were performed in 96-well black plates. Phosphate buffer solution (0.1 M, pH = 7.4) was used for preparation of stock solutions (5 mg/mL) of both human recombinant MAO-A and MAO-B enzymes. […] The addition of the test compound solution was followed by addition of either MAO-A or MAO-B enzyme (50 μL/well) solutions. After 10 min of incubation at 37 °C, kynuramine (50 μL/well) was added and enzyme-substrate reaction was initiated. The plate was incubated for 20 min at 37 °C and then reaction was terminated by addition of 2 N NaOH (75 μL/well). The fluorimetric reads from the top was performed at 310 nm excitation and 380 nm emission wavelengths.

A further assay deals with T4, human recombinant MAO-A (Homo sapiens, UniProt P21397).
T4 sequence (P21397 1-527): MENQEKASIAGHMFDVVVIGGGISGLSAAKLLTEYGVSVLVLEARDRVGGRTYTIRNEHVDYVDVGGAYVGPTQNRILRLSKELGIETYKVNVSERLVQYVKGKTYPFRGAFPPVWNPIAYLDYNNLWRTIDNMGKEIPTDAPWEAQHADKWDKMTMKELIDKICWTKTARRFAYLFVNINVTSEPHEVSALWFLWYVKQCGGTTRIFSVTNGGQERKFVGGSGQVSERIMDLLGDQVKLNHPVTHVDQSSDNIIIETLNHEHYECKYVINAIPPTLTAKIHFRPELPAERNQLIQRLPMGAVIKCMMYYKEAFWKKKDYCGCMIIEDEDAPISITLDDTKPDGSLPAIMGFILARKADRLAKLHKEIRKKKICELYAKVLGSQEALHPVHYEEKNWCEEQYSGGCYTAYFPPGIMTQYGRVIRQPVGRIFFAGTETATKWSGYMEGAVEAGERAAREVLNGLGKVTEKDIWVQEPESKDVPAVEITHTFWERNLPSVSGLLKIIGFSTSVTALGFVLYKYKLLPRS
In words: MAO inhibition assay (kynuramine, fluorimetric). The protocol: as §2

Where two headings read alike, the source gives them in different places.

For orientation: IC50 means the point on the concentration scale where inhibition reaches its midpoint. Higher therefore signals a need for much substance. By inhibition is commonly meant the share of the control response that was lost under treatment.

T1 sequence (P05979 25-600): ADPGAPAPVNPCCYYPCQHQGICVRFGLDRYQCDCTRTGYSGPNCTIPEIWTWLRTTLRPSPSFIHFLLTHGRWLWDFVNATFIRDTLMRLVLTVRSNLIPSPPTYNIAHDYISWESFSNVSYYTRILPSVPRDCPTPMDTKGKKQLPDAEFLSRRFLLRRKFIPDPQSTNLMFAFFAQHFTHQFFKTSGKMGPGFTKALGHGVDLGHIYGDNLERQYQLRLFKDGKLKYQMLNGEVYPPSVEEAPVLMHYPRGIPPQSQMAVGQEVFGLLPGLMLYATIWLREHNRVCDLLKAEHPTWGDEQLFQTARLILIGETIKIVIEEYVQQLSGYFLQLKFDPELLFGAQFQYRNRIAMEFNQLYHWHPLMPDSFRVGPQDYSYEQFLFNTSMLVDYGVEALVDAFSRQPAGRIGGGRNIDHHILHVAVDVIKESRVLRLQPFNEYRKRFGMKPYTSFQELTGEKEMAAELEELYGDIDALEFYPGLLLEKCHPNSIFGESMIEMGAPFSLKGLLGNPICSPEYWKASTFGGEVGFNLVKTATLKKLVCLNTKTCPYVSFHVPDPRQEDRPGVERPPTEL
Chain of AChE (P22303 32-614): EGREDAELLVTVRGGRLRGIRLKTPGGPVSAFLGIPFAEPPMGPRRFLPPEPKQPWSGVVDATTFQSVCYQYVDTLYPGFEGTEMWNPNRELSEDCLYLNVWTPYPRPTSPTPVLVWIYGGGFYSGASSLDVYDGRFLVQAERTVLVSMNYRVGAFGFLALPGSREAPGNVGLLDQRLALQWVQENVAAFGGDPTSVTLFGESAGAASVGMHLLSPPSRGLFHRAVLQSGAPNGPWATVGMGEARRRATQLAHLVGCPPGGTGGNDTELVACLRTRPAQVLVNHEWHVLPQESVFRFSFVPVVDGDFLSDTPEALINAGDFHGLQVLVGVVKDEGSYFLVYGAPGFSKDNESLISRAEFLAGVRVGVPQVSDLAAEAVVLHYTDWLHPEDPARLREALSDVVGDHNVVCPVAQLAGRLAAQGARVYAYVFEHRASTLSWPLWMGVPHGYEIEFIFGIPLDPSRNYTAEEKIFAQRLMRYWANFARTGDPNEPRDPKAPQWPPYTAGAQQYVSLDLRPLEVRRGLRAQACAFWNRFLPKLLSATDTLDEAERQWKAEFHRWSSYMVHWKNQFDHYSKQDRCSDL

Take `CCN(CC)c1ccc(-c2nc3ccccc3n2CCN2CCOCC2)cc1` [Compound 2h, 2-(4-Diethylaminophenyl)-1-[2-(morpholin-4-yl)ethyl]-1H-benzimidazole]: at COX-1, the half-inhibitory concentration (IC50) was 43 µM, the “COX-1 inhibition at the initial concentrations” value is “more than 50%”, the inhibition at 10 µM was 46.3 ± 1.09% and the inhibition at 1 µM came out at 40.9 ± 0.99%. On COX-1, this molecule displayed an inhibition at 0.1 µM of 35.6 ± 0.81%, an inhibition at 0.01 µM of 30.8 ± 0.93% and an inhibition at 0.001 µM of 24.2 ± 0.72%. At COX-1 (10^-3 M), the “COX-1 Inhibition (%)” value came to 75.21%. Also, the “COX-1 Inhibition (%)” value at COX-1 (10^-4 M) turned out to be 78.21%. Moreover, on COX-2, the IC50 is 51.2 µM, the “COX-2 inhibition at the initial concentrations” value is “more than 50%”, at 10 µM the inhibition was 47.5 ± 1.08% and the inhibition at 1 µM came out at 42.6 ± 1.16%. At COX-2, this molecule returned an inhibition at 0.1 µM of 31.8 ± 0.99%, an inhibition at 0.01 µM of 28.4 ± 0.82% and an inhibition at 0.001 µM of 23 ± 0.68%. The “COX-2 Inhibition (%)” value at COX-2 (10^-3 M) was found to be 56.20%. Further, the “COX-2 Inhibition (%)” value at COX-2 (10^-4 M) turned out to be 57.08%. Also, the “AChE Inhibition (%)” value on AChE (10^-3 M) worked out at 10.49%. In addition, the “AChE Inhibition (%)” value on AChE (10^-4 M) was determined as 10.49%. Also, the “MAO-B Inhibition (%)” value on human recombinant MAO-B (10^-3 M) is reported as 45.58%. On human recombinant MAO-B (10^-4 M), the “MAO-B Inhibition (%)” value is recorded as 36.16%. Further, the “MAO-A Inhibition (%)” value on human recombinant MAO-A (10^-3 M) is on record as 36.71%. Moreover, at human recombinant MAO-A (10^-4 M), the “MAO-A Inhibition (%)” value was 23.16%.
As to `CN(C)c1ccc(-c2nc3ccccc3n2CCN2CCOCC2)cc1` [Compound 2i, 2-(4-Dimethylaminophenyl)-1-[2-(morpholin-4-yl)ethyl]-1H-benzimidazole], the “COX-1 Inhibition (%)” value on COX-1 (10^-3 M) was 30.08%; at COX-1 (10^-4 M), 22.62%. Moreover, the “COX-2 Inhibition (%)” value is given as 18.47% on COX-2 (10^-3 M) and 25.76% on COX-2 (10^-4 M). The “AChE Inhibition (%)” value at AChE (10^-3 M) and on AChE (10^-4 M) was 7.54% each time. Further, the results for the “MAO-B Inhibition (%)” value at human recombinant MAO-B (10^-3 M) and on human recombinant MAO-B (10^-4 M) were 22.17% and 14.43%, respectively. Also, the “MAO-A Inhibition (%)” value at human recombinant MAO-A (10^-3 M) came out at 26.91%; on human recombinant MAO-A (10^-4 M), 19.20%.
In the case of `N#Cc1ccc(-c2nc3ccccc3n2CCN2CCOCC2)cc1` [Compound 2k, 2-(4-Cyanophenyl)-1-[2-(morpholin-4-yl)ethyl]-1H-benzimidazole], the “COX-1 Inhibition (%)” value at COX-1 (10^-3 M) is recorded as 28.63%; on COX-1 (10^-4 M) it was 28.13%. Also, the “COX-2 Inhibition (%)” value at COX-2 (10^-3 M) is reported as 26.39%; on COX-2 (10^-4 M), 20.46%. The “AChE Inhibition (%)” value at AChE (10^-3 M) and on AChE (10^-4 M) was 20.45% each time. Further, the “MAO-B Inhibition (%)” value at human recombinant MAO-B (10^-3 M) worked out at 43.22%; at human recombinant MAO-B (10^-4 M), 34.29%. Besides, the “MAO-A Inhibition (%)” value at human recombinant MAO-A (10^-3 M) is given as 31.99%; at human recombinant MAO-A (10^-4 M) it was 26.86%.
For the molecule `Cc1ccc(-c2nc3ccccc3n2CCN2CCOCC2)cc1` [Compound 2a, 2-(4-Methylphenyl)-1-[2-(morpholin-4-yl)ethyl]-1H-benzimidazole], at COX-1, the half-inhibitory concentration (IC50) worked out at 56.1 µM, the “COX-1 inhibition at the initial concentrations” value is on record as “more than 50%”, at 10 µM the inhibition was 47.4 ± 1.08% and the inhibition at 1 µM was 40.1 ± 0.92%. In addition, on COX-1, the inhibition at 0.1 µM turned out to be 35.7 ± 0.97%, the inhibition at 0.01 µM is 30.5 ± 0.83% and 0.001 µM produced 28.8 ± 0.79% inhibition. Also, the “COX-1 Inhibition (%)” value on COX-1 (10^-3 M) is listed as 75.08%. In addition, the “COX-1 Inhibition (%)” value on COX-1 (10^-4 M) amounted to 71.23%. For the same molecule, on COX-2, half-maximal inhibition (IC50) required 58.7 µM, the “COX-2 inhibition at the initial concentrations” value is on record as “more than 50%”, the inhibition at 10 µM turned out to be 43.7 ± 1.07% and the inhibition at 1 µM stood at 40.3 ± 1.1%. At COX-2, this molecule showed an inhibition at 0.1 µM of 38.3 ± 0.92%, an inhibition at 0.01 µM of 36.2 ± 0.87% and an inhibition at 0.001 µM of 32.4 ± 0.91%. The “COX-2 Inhibition (%)” value on COX-2 (10^-3 M) was 58.28%. Moreover, on COX-2 (10^-4 M), the “COX-2 Inhibition (%)” value amounted to 56.23%. Besides, the “AChE Inhibition (%)” value on AChE (10^-3 M) turned out to be 21.80%. The “AChE Inhibition (%)” value at AChE (10^-4 M) amounted to 21.80%. Moreover, the “MAO-B Inhibition (%)” value at human recombinant MAO-B (10^-3 M) stood at 25.27%. Moreover, the “MAO-B Inhibition (%)” value at human recombinant MAO-B (10^-4 M) turned out to be 16.63%. Moreover, the “MAO-A Inhibition (%)” value at human recombinant MAO-A (10^-3 M) was 24.29%. Moreover, the “MAO-A Inhibition (%)” value on human recombinant MAO-A (10^-4 M) was 19.15%.

These data come from article PMC6152416, “Pharmacological and Toxicological Screening of Novel Benzimidazole-Morpholine Derivatives as Dual-Acting Inhibitors” (Molecules : A Journal of Synthetic Chemistry and Natural …, 2017).
